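Assay format: 96-well plates, 48-hour exposure. GI50 = concentration required for 50% inhibition of growth.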 The source made the active and inactive calls. Cut-off read from the data, not from the text of the source: active = GI50 up to about 1.1 µM and inactive = higher.
Columns and labels:
Assay in all cases: growth of human tumour cells (NCI), 48 h
[1] = test system: 786-0
[2] = test system: NCI/ADR-RES
[3] = test system: OVCAR-8
[4] = test system: SNB-19
[5] = test system: HOP-92
[6] = test system: HT-29
[7] = test system: SNB-75
[8] = test system: ACHN
[9] = test system: CCRF-CEM
[10] = test system: OVCAR-4
[11] = test system: M14
[12] = test system: MCF7
[13] = test system: A549
[14] = test system: SF-295
[15] = test system: NCI-H23
[16] = test system: CAKI-1
[17] = test system: HL-60
[18] = test system: UO-31
[19] = test system: DU-145
[20] = test system: SK-MEL-2
[21] = test system: HOP-62
[22] = test system: MDA-MB-231
[23] = test system: SK-MEL-5
[24] = test system: SF-268
[25] = test system: Hs-578T
[26] = test system: NCI-H522
[27] = test system: SK-MEL-28
[28] = test system: K562
[29] = test system: A498
[30] = test system: TK-10
[31] = test system: SK-OV-3
[32] = test system: HCT-15
[33] = test system: NCI-H226
[34] = test system: BT-549
[35] = test system: MDA-MB-435
[36] = test system: IGROV-1
[37] = test system: KM12
[38] = test system: MOLT-4
[39] = test system: UACC-257
[40] = test system: HCC 2998
[41] = test system: EKVX
[42] = test system: SN12C
[43] = test system: T47D
[44] = test system: OVCAR-3
[45] = test system: COLO 205
[46] = test system: SW-620
[47] = test system: NCI-H460
[48] = test system: U-251
[49] = test system: PC-3
[50] = test system: SF-539
[51] = test system: RXF 393
[52] = test system: OVCAR-5
[53] = test system: Malme-3M
[54] = test system: UACC-62
[55] = test system: LOX IMVI
[56] = test system: HCT-116
[57] = test system: MDA-N

COc1ccc(-c2oc3cc(OC)c(OC)c(OC)c3c(=O)c2OC)cc1OC [HEXAMETHOXYFLAVONE]
GI50 [1]: > 100 µM (inactive) | GI50 [2]: > 100 µM (inactive) | GI50 [3]: > 100 µM (inactive) | GI50 [4]: > 100 µM (inactive) | GI50 [5]: 16.4 µM (inactive) | GI50 [6]: > 100 µM (inactive) | GI50 [7]: > 100 µM (inactive) | GI50 [8]: > 100 µM (inactive) | GI50 [9]: > 100 µM (inactive) | GI50 [10]: > 100 µM (inactive) | GI50 [11]: > 100 µM (inactive) | GI50 [12]: > 100 µM (inactive) | GI50 [13]: > 100 µM (inactive) | GI50 [14]: > 100 µM (inactive) | GI50 [15]: > 100 µM (inactive) | GI50 [16]: > 100 µM (inactive) | GI50 [17]: 20.8 µM (inactive) | GI50 [18]: 79.1 µM (inactive) | GI50 [19]: > 100 µM (inactive) | GI50 [20]: > 100 µM (inactive) | GI50 [21]: > 100 µM (inactive) | GI50 [22]: > 100 µM (inactive) | GI50 [23]: 53.8 µM (inactive) | GI50 [24]: > 100 µM (inactive) | GI50 [25]: > 100 µM (inactive) | GI50 [26]: > 100 µM (inactive) | GI50 [27]: > 100 µM (inactive) | GI50 [28]: > 100 µM (inactive) | GI50 [29]: > 100 µM (inactive) | GI50 [30]: > 100 µM (inactive) | GI50 [31]: > 100 µM (inactive) | GI50 [32]: > 100 µM | GI50 [33]: > 100 µM (inactive) | GI50 [34]: > 100 µM (inactive) | GI50 [35]: > 100 µM (inactive) | GI50 [36]: > 100 µM (inactive) | GI50 [37]: > 100 µM (inactive) | GI50 [38]: > 100 µM (inactive) | GI50 [39]: > 100 µM (inactive) | GI50 [40]: > 100 µM (inactive) | GI50 [41]: > 100 µM (inactive) | GI50 [42]: > 100 µM (inactive) | GI50 [43]: 79.6 µM (inactive) | GI50 [44]: > 100 µM (inactive) | GI50 [45]: > 100 µM (inactive) | GI50 [46]: > 100 µM (inactive) | GI50 [47]: > 100 µM (inactive) | GI50 [48]: > 100 µM (inactive) | GI50 [49]: > 100 µM (inactive) | GI50 [50]: > 100 µM (inactive) | GI50 [51]: > 100 µM (inactive) | GI50 [52]: > 100 µM (inactive) | GI50 [53]: > 100 µM (inactive) | GI50 [54]: > 100 µM (inactive) | GI50 [55]: > 100 µM (inactive) | GI50 [56]: > 100 µM (inactive) | GI50 [57]: > 100 µM (inactive)

— ChEMBL document CHEMBL1201862, “PubChem BioAssay data set” (2004)
